According to patent US20100267561A1, “HERBICIDAL PYRIDAZINONE DERIVATIVES” (priority 2007, published 2010):

Tests used:
canola (Brassica rapa) = test: Test C pre-/postemergence plant response; assay type: in vivo
Outline: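 Scores (0 = no effect, 100 = complete control) are visual assessments made against control plants 15–25 days post-treatment in a controlled environment. Applications were preemergence and postemergence, with postemergence plants between 1- and 4-leaf stage.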

[1] = system: Virginia (V.) dayflower (Commelina virginica); test: Test E pre-/postemergence plant response; assay type: in vivo; conditions: scale 0 to 100
Outline: (§1)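 Pre/post herbicide screen; formulation: non-phytotoxic solvent mix + surfactant. Post timing 1–4 leaves (2–18 cm ht). Greenhouse 14–21 d; visual 0 (none) to 100 (complete control) vs controls.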

kochia (Kochia scoparia) = test: Test E pre-/postemergence plant response; assay type: in vivo; conditions: scale 0 to 100
Outline: as §1

[2] = system: Russian thistle (Salsola kali); test: Test E pre-/postemergence plant response; assay type: in vivo; conditions: Preemergence, scale 0 to 100
Outline: as §1

[3] = system: common sowthistle (Sonchus oleraceous); test: Test E pre-/postemergence plant response; assay type: in vivo; conditions: scale 0 to 100
Outline: as §1

[4] = system: prickly sida (Sida spinosa); test: Test E pre-/postemergence plant response; assay type: in vivo; conditions: scale 0 to 100
Outline: as §1

[5] = system: Canada horseweed (Conyza canadensis); test: Test E pre-/postemergence plant response; assay type: in vivo; conditions: Postemergence, scale 0 to 100
Outline: as §1

[6] = Preemergence, 8 g ai/ha, scale 0 to 100 (0 no effect, 100 complete control)
[7] = Preemergence, 16 g ai/ha, scale 0 to 100 (0 no effect, 100 complete control)
[8] = Preemergence, 31 g ai/ha, scale 0 to 100 (0 no effect, 100 complete control)
[9] = Preemergence, 62 g ai/ha, scale 0 to 100, 0 no effect, 100 complete control
[10] = Postemergence, 8 g ai/ha, scale 0 to 100, 0 no effect, 100 complete control
[11] = Postemergence, 16 g ai/ha, scale 0 to 100, 0 no effect, 100 complete control
[12] = Postemergence, 31 g ai/ha, scale 0 to 100, 0 no effect, 100 complete control
[13] = Postemergence, 62 g ai/ha, scale 0 to 100, 0 no effect, 100 complete control

| Compound | Plant response rating, Canola (canola (Brassica rapa); [6]) | Plant response rating, Canola (canola (Brassica rapa); [7]) | Plant response rating, Canola (canola (Brassica rapa); [8]) | Plant response rating, Canola (canola (Brassica rapa); [9]) | Plant response rating, Dayflower, V. ([1]; 16 g ai/ha, Preemergence) | Plant response rating, Dayflower, V. ([1]; Postemergence, 8 g ai/ha) | Plant response rating, Dayflower, V. ([1]; Postemergence, 16 g ai/ha) | Plant response rating, Dayflower, V. ([1]; Postemergence, 31 g ai/ha) | Plant response rating, Kochia (kochia (Kochia scoparia); 16 g ai/ha, Preemergence) | Plant response rating, Kochia (kochia (Kochia scoparia); 31 g ai/ha, Preemergence) | Plant response rating, Thistle, Russian ([2]; 31 g ai/ha) | Plant response rating, Sowthistle ([3]; Postemergence, 8 g ai/ha) | Plant response rating, Sowthistle ([3]; Postemergence, 16 g ai/ha) | Plant response rating, Sowthistle ([3]; Postemergence, 31 g ai/ha) | Plant response rating, Prickly Sida ([4]; 16 g ai/ha, Preemergence) | Plant response rating, Prickly Sida ([4]; 31 g ai/ha, Preemergence) | Plant response rating, Prickly Sida ([4]; Postemergence, 8 g ai/ha) | Plant response rating, Prickly Sida ([4]; Postemergence, 16 g ai/ha) | Plant response rating, Prickly Sida ([4]; Postemergence, 31 g ai/ha) | Plant response rating, Canola (canola (Brassica rapa); [10]) | other results |
| --- | --- | --- | --- | --- | --- | --- | --- | --- | --- | --- | --- | --- | --- | --- | --- | --- | --- | --- | --- | --- | --- |
| Cc1cc(-c2ccc(Cl)cc2)nn1-c1c(OC(=O)C(C)C)cnn(C)c1=O [Compound 34] | 0 | 0 | 0 | 0 | 0 | 0 | 0 | 0 | 0 | 0 | 0 | 0 | 0 | 0 | 0 | 0 | 0 | 0 | 0 |  | Plant response rating, Dayflower, V. ([1]; 31 g ai/ha, Preemergence): 0; Plant response rating, Dayflower, V. ([1]; 62 g ai/ha, Preemergence): 0; Plant response rating, Dayflower, V. ([1]; Postemergence, 62 g ai/ha): 0; Plant response rating, Kochia (kochia (Kochia scoparia); 62 g ai/ha, Preemergence): 0; Plant response rating, Thistle, Russian ([2]; 16 g ai/ha): 0; Plant response rating, Thistle, Russian ([2]; 62 g ai/ha): 0; Plant response rating, Sowthistle ([3]; 16 g ai/ha, Preemergence): 0; Plant response rating, Sowthistle ([3]; 31 g ai/ha, Preemergence): 0; Plant response rating, Sowthistle ([3]; 62 g ai/ha, Preemergence): 0; Plant response rating, Sowthistle ([3]; Postemergence, 62 g ai/ha): 0; Plant response rating, Prickly Sida ([4]; 62 g ai/ha, Preemergence): 0; Plant response rating, Prickly Sida ([4]; Postemergence, 62 g ai/ha): 0 |
| CCc1cc(-c2ccc(C(F)(F)F)cc2)nn1-c1c(OS(C)(=O)=O)cnn(C)c1=O [Compound 19] | 0 | 0 | 0 | 0 | 0 | 0 | 0 | 0 | 0 | 0 | 0 | 0 | 0 | 0 | 0 | 0 | 0 | 0 | 0 | 0 | Plant response rating, Canola (canola (Brassica rapa); [11]): 0; Plant response rating, Canola (canola (Brassica rapa); [12]): 0; Plant response rating, Canola (canola (Brassica rapa); [13]): 0; Plant response rating, Dayflower, V. ([1]; 4 g ai/ha, Postemergence): 0; Plant response rating, Dayflower, V. ([1]; 8 g ai/ha, Preemergence): 0; Plant response rating, Dayflower, V. ([1]; Preemergence, 4 g ai/ha): 0; Plant response rating, Kochia (kochia (Kochia scoparia); 4 g ai/ha, Postemergence): 0; Plant response rating, Kochia (kochia (Kochia scoparia); Postemergence, 16 g ai/ha): 0; Plant response rating, Kochia (kochia (Kochia scoparia); Preemergence, 4 g ai/ha): 0; Plant response rating, Horseweed ([5]; 4 g ai/ha): 0; Plant response rating, Horseweed ([5]; 8 g ai/ha): 0; Plant response rating, Horseweed ([5]; 16 g ai/ha): 0; Plant response rating, Horseweed ([5]; 31 g ai/ha): 0; Plant response rating, Sowthistle ([3]; 4 g ai/ha, Postemergence): 0; Plant response rating, Prickly Sida ([4]; 4 g ai/ha, Postemergence): 0; Plant response rating, Prickly Sida ([4]; Preemergence, 4 g ai/ha): 0 |
| CCc1c(C)c(-c2ccc(Cl)cc2)nn1-c1c(O)cnn(C)c1=O [Compound 26, 4-[3-(4-chlorophenyl)-5-ethyl-4-methyl-1H-pyrazol-1-yl]-5-hydroxy-2-methyl-3(2H)-pyridazinone] |  |  | 0 | 0 |  |  |  |  |  |  |  |  |  |  |  |  |  |  |  | 0 | melting point: 227 to 229 °C; Plant response rating, Canola (canola (Brassica rapa); [11]): 0; Plant response rating, Canola (canola (Brassica rapa); [12]): 0; Plant response rating, Canola (canola (Brassica rapa); [13]): 0 |
